Assay results published in patent US7129266B2, “Antibiotic Cyan426-A” (Wyeth Holdings Corporation, priority 2002, dated 2006).
In brackets after ≈: the same amount, converted by molar mass. Where two headings read alike, the source gives them in different places.

How the values were obtained:
Assay in all cases: In vitro antibacterial test, MIC by broth dilution
Assay type in all cases: cell-based
Staphylococcus aureus = conditions: 18 h
Experimental: (§1) The minimum inhibitory concentration (MIC), the lowest concentration of the antibiotic which inhibits growth of the test organism, is determined by the broth dilution method using Muller-Hinton II […] (Baltimore Biological Laboratories) following the recommendations of the National Committee for Clinical Laboratory Standards [Methods for dilution antimicrobial susceptibility tests for bacteria that grow aerobically. Approved standard M7-A2. National Committee for Clinical Laboratory Standards, Villanova, Pa.].
(§2) An inoculum level of 5×10^5 CFU/ml, and a range of antibiotic concentrations (64–0.06 μg/ml) is used. The MIC is determined after the microtiter plates are incubated for 18 hours at 35° C. in an ambient air incubator. The test organisms comprise a spectrum of Gram-positive bacteria Staphylococcus sp., Streptococcus pneumoniae, Enterococcus sp., Gram-negative bacteria Escherichia coli, and the yeast Candida albicans. These organisms include recent clinical isolates that are resistant to piperacillin or vancomycin.

Escherichia coli = conditions: 18 hours at 35° C.
Experimental: as §1, §2

Enterococcus faecium = conditions: 18 h
Experimental: as §1, §2

Enterococcus faecalis = conditions: 18 hours at 35° C.
Experimental: as §1, §2

[1] = test system: Staphylococcus haemolyticus; conditions: Staphylococcus haemolyticus GC 4547, resistant to methicillin; 18 hours at 35° C.
Experimental: as §1, §2

Streptococcus pneumoniae = conditions: 18 h
Experimental: as §1, §2

Candida albicans = Candida albicans GC 3066; 18 hours at 35° C.
Experimental: as §1, §2

With `C=CC1C=C(C)C2C3C(Oc4ccc(cc4)CC4(O)C=C(C(=O)N4)C(=O)C13)C1C(C)CC(C)CC21C` (stereo not shown) [Cyan426-A] the MIC (Staphylococcus aureus; Staphylococcus aureus GC 1131, resistant to methicillin, 18 hours at 35° C.) was 2 µg/mL (≈ 4.1 µM), the MIC (Staphylococcus aureus; Staphylococcus aureus GC 2216, 18 hours at 35° C.) was 1 µg/mL (≈ 2.05 µM) and the MIC (Staphylococcus aureus; Staphylococcus aureus GC 4541, resistant to methicillin, 18 hours at 35° C.) was 0.25 µg/mL (≈ 0.513 µM). The MIC (Staphylococcus aureus; Staphylococcus aureus GC 4543, 18 hours at 35° C.) was 1 µg/mL (≈ 2.05 µM), the MIC (Escherichia coli; Escherichia coli GC 4559, read-out: MIC) was 128 µg/mL (≈ 262 µM) and the MIC (Escherichia coli; Escherichia coli, 18 h, Escherichia coli GC 4560 (imp)) was 2 µg/mL (≈ 4.1 µM). For the same compound, the MIC (Enterococcus faecium; Enterococcus faecium GC 2243, marked * (resistant to methicillin), 18 hours at 35° C.) was 1 µg/mL (≈ 2.05 µM), the MIC (Enterococcus faecium; Enterococcus faecium GC 4556, 18 hours at 35° C.) was 1 µg/mL (≈ 2.05 µM) and the MIC (Enterococcus faecium; Enterococcus faecium GC 4558, marked * (resistant to methicillin), 18 hours at 35° C.) was 0.5 µg/mL (≈ 1.03 µM). For the same compound, the MIC (Enterococcus faecalis; Enterococcus faecalis GC 2242, resistant to vancomycin) was 0.50 µg/mL (≈ 1.03 µM), the MIC (Enterococcus faecalis; Enterococcus faecalis GC 4555) was 0.50 µg/mL (≈ 1.03 µM) and the MIC (Enterococcus faecalis; Enterococcus faecalis GC 6189, read-out: MIC) was 0.5 µg/mL (≈ 1.03 µM). The MIC [1] was 0.25 µg/mL (≈ 0.513 µM), the MIC (Streptococcus pneumoniae; Streptococcus pneumoniae GC 1894, 18 hours at 35° C.) was 64 µg/mL (≈ 131 µM) and the MIC (Streptococcus pneumoniae; Streptococcus pneumoniae GC 6242, 18 hours at 35° C.) was 16 µg/mL (≈ 32.8 µM). The MIC (Candida albicans) was 8 µg/mL (≈ 16.4 µM).
